Here are results for two compounds from patent EP4663632A1, “COMPOUNDS USEFUL FOR THE MODULATION OF THE ACTIVITY OF STING” (Sulis Therapeutics ApS, priority 2024, dated 2025).

The IC50 is the concentration needed to halve the response being measured.

In assay [1] the target is T1, C-terminal domain (CTD) of human STING (Homo sapiens, UniProt Q86WV6). Put plainly: STING binding TR-FRET assay. More on the design: purchased CisBio 64BDSTGPEG
Particulars: Human STING WT Binding Kit (CisBio). Here is the method:
The affinity of molecules to the C-terminal domain (CTD) of human STING was determined using a commercial Human STING WT Binding Kit (CisBio, cat.# 64BDSTGPEG). In this time-resolved FRET assay, a recombinant human STING protein construct with a His-tag was employed. When bound to STING, a D2-labeled active site probe accepts the 620 nm emission from Anti-HIS-Tb-STING and an increase in fluorescence is measured at 665 nm. Molecules that compete for the probe binding site will result in a low 665 nm signal. The assay was run in CisBio low-volume white 96-well plates (catalog# 66PL96005) containing 5 µL compounds in Diluent Buffer (supplied with the CisBio kit). A solution of 1xSTING, 1x Anti-HIS-Tb and 1X D2-probe in TB detection buffer (kit supplied) was added to the plate. Plates were centrifuged for 2 min at 500 rpm, incubated for 60 min at room temperature in the dark, and then fluorescence emission at 665 nm following 330 nm xenon flash excitation on an BioTek synergy H1 multimode reader (Agilent) was measured. The plC50 values were determined using a standard four parameter curve fit in GraphPad Prism.
Target sequence in this assay (Q86WV6 135-379 limits assumed): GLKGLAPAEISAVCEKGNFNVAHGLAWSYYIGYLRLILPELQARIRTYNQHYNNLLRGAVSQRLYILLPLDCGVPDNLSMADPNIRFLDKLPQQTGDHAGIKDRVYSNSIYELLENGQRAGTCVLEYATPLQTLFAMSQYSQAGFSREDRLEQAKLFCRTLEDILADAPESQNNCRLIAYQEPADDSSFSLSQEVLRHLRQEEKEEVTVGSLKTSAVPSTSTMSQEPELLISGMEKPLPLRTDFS

The target of assay [2] is T1, C-terminal domain (CTD) of human STING. Nature of the assay: STING binding FP assay I. Particulars: 35 nM STING, 4 nM Probe 1. Details: recombinant human STING protein (155-379). Here is the method: The interaction between molecules and the C-terminal domain (CTD) of human STING was evaluated using a competition binding assay. In this assay, recombinant human STING protein (155-379) and a STING binding fluorescent probe were employed. Upon binding of the probe to STING, the rotation of the fluorescent probe is slowed due to the larger molecular size of the protein-bound complex. As a result, emitted light retains its plane of polarization, leading to an increase in fluorescence polarization. Molecules competing for the probe binding site displace the probe, which leads to rapid randomization of the polarization plane of the emitted light and a subsequent decrease in measured fluorescence polarization signal. Change in polarization was measured, allowing a comparative evaluation of the binding affinities of different compounds to the target protein.
The assay was performed in 96-well plates (ThermoFisher, cat.# 237108) containing 100µl : 10 µL test compound in 10% DMSO and buffer A (150 mM NaCl, 50 mM HEPES pH 7.5, 1 mM DTT) + 90 µL prepared master mix solution of: 4 nM fluorescein-labelled STING ligand (Probe 1; synthesis described above) in buffer A + 0.055% Tween-20 (v/v) and 35 nM STING in buffer A. Post mixing, plates were agitated at 600rpm and incubated for 20 min at room temperature. Subsequent measurements of the fluorescence polarization signal were made on a BioTek Synergy-H1 plate reader, using a polarization filter; Exc: 485/20 nm, Em: […]) with a gain-setting of 75. IC50 values were determined using a standard non-linear regression four-parameter curve fit in Graphpad Prism.
Target sequence in this assay (Q86WV6 155-379): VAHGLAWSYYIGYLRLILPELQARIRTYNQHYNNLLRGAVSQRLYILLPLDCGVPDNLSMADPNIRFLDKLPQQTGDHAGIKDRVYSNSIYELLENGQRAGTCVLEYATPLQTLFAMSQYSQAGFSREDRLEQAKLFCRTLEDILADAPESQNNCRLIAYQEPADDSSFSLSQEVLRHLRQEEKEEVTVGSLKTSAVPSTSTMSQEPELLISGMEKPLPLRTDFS

The target in assay [3] is T2, STING (Homo sapiens, UniProt Q86WV6). Nature of the assay: Western Blot analysis of inhibition of STING activation in HFF-1 cells. In kind it is cell-based. More on the design: host or cells: HFF-1 human foreskin fibroblasts. The note with it: agonist only (-): 300 nM diABZI c3 or 8 µg/mL cGAMP. As for the experimental part:
To assess whether S1 STING ligands inhibit STING activation, primary human skin fibroblasts (Figure 5) or HFF-1 cells (Figure 6) were treated with various compounds which comprise only an S1 ligand domain and a Linker domain before undergoing Western Blot analysis as described below.
The cells were lysed and analysed on WB. […] The WB membrane was probed for p-STING, STING, p-IRF3, p-TBK1, and Vinculin.
(In general: Immunoblotting shows a protein as a band on a membrane.)

Assay [4] addresses T2, STING. Put plainly: Western Blot analysis of STING phosphorylation in human fibroblast cells (STING agonism). The class given is cell-based. More on the design: host or cells: HFF-1 human foreskin fibroblasts. Particulars: control, 300nM diABZI C3 alone. As for the experimental part: Human fibroblast were treated with a titration of E22, E9, E14 and E16 (7.2µM-3.6nM) for 24h prior to cell lysis and subsequently total STING, pSTING and Vinculin were assessed by western blot using rabbit anti-STING (1:1000), anti-pSTING (1:1000), anti-Vinculin (1:1000) and 2nd anti-rabbit-HRP (1:10.000) or anti-mouse-HRP (1:7500). Proteins were visualized using ImageQuant800. Control cells included untreated cells and cells treated with 300nM diABZI C3.

Assay [5] addresses T2, STING. Put plainly: Inhibition of STING-agonist-induced IFN-β and CXCL10 release by Compounds A9 and A11. In kind it is cell-based. More on the design: host or cells: HFF-1 human foreskin fibroblasts. As for the experimental part: HFF-1 cells were also assessed for inhibition of STING-agonist-induced IFN-β and CXCL10 release in cells treated with Compounds A9 and A11. […] In contrast, pre-treating cells for 1 to 2 hours prior to diABZI c3, simultaneous treatment with A9 and diABZI c3, or pre-treating cells for 15 minutes with diABZI c3 followed by A9 treatment led to a decrease in the IFN media concentration to ~100 U/mL. […] In contrast, cells pre-treated for 1 to 2 hours prior to diABZI c3, simultaneous treatment with A9 and diABZI c3, or pre-treating cells for 15 minutes with diABZI c3 followed by A9 treatment led to a decrease in the CXCL10 media concentration to […] (Figure 9B, unfiled bars).
In contrast, pre-treating cells for 1 to 2 hours prior to diABZI c3, simultaneous treatment with A11 and diABZI c3, or pre-treating cells for 15 minutes with diABZI c3 followed by A11 treatment led to a decrease in the IFN media concentration to -10 - 20 U/mL. […] In contrast, cells pre-treated for 1 to 2 hours prior to diABZI c3, simultaneous treatment with A11 and diABZI c3, or pre-treating cells for 15 minutes with diABZI c3 followed by A11 treatment led to a decrease in the CXCL10 media concentration to -10 - 20 pg/mL (Figure 9B; filled bars).

The target of assay [6] is T3, STING (Mus musculus, UniProt Q3TBT3).
T3 sequence (Q3TBT3 1-378): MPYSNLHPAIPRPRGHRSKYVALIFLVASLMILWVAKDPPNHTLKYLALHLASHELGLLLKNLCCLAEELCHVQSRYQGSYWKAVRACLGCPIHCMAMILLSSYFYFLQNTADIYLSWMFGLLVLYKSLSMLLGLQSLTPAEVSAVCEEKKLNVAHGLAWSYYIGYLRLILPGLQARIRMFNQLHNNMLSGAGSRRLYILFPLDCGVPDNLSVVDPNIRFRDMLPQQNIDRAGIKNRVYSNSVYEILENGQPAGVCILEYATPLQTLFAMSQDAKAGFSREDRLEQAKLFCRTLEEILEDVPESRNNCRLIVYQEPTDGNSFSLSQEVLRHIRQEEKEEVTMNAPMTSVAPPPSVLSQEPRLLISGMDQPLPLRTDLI
Put plainly: IFN-β secretion from mouse RAW264.7 cells treated with diABZI. The class given is cell-based. Particulars: 1.8 µM diABZI c3 only. Details: endogenous in cells; host or cells: RAW264.7 mouse cells. As for the experimental part:
As expected, RAW264.7 cells treated with 1.8 µM diABZI c3 increased IFN-β secretion, resulting in a media concentration of around 1000 pg/mL. In contrast, cells treated with 1.8 µM diABZI c3 and 0.05 µM Example compounds 14, 16 or 24 reduced this expression to approximately 500 pg/mL.

“And” between values parts separate entries of the source, which are not always exact repeats. Equal entries are not always repeated. Some results are limits rather than exact numbers.

T2 sequence (Q86WV6 whole entry, the tested form may be a part): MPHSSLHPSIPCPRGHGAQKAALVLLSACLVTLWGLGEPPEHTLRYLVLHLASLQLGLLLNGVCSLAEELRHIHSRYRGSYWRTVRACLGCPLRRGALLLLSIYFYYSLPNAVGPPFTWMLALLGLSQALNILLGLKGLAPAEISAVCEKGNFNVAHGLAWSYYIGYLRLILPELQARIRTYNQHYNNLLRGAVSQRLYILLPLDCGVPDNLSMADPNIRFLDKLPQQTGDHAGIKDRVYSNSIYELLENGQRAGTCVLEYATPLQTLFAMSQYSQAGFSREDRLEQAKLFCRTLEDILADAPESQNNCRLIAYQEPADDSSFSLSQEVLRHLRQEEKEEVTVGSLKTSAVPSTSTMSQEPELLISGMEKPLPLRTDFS

`CCOC(=O)COC(CCn1c(=NC(=O)c2cc(C)nn2CC)n(C)c2cc(C(N)=O)ccc21)CCn1c(=NC(=O)c2cc(C)nn2CC)n(C)c2cc(C(N)=O)ccc21` (stereo not shown) [Building Block G-2, Ethyl (3-{5-carbamoyl-2-[(1-ethyl-3-methyl-5-pyrazolyl)carbonylimino]-3-methyl-2,3-dihydro-1H-1,3-benzimidazol-1-yl}-1-(2-{5-carbamoyl-2-[(1-ethyl-3-methyl-5-pyrazolyl)carbonylimino]-3-methyl-2,3-dihydro-1H-1,3-benzimidazol-1-yl}ethyl)propoxy)acetate]: the half-maximal inhibitory concentration (IC50) in assay [1] was 0.452 nM; in assay [2] it was below 30 nM.
Consider `CCn1nc(C)cc1C(=O)Nc1nc2cc(C(N)=O)cc(OC)c2n1C/C=C/Cn1c(NC(=O)c2cc(C)nn2CC)nc2cc(C(N)=O)cc(OCCCN3CCOCC3)c21.Cl.Cl.Cl` [diABZI c3, (E)-1-(4-(5-carbamoyl-2-(1-ethyl-3-methyl-1H-pyrazole-5-carboxamido)-7-(3-morpholinopropoxy)-1H-benzo[d]imidazol-1-yl)but-2-en-1-yl)-2-(1-ethyl-3-methyl-1H-pyrazole-5-carboxamido)-7-methoxy-1H-benzimidazole-5-carboxamide tris(hydrochloride), reference compound], for which, on STING [3], the “phosphorylation of STING, IRF3 and TBK1” value was “STING was phosphorylated and activated as were the downstream STING effectors IRF3 and TBK1”. The “STING phosphorylation (pSTING)” value on STING [4] is recorded as “STING was phosphorylated”. In addition, on STING [5] (cells treated with diABZI c3 alone (0.3 µM)), the CXCL10 media concentration is ~ 60 pg/mL. Moreover, at STING [5] (cells treated with only diABZI c3 (0.3 µM), tris(hydrochloride)), the IFN media concentration is ~ 200 U/mL and ~ 100 U/mL. The IFN-β media concentration result on STING [6] was “around 1000 pg/mL”.
